US7960438B2, “Use of agomelatine in obtaining medicaments intended for the treatment of generalized anxiety disorder” (Les Laboratoires Servier, priority 2006, dated 2011)

Test system: patients suffering from Generalized Anxiety Disorder
Test: Clinical study versus placebo in Generalized Anxiety Disorder
Format: in vivo
Experimental: A clinical study versus placebo has been carried out in 121 patients. Those 121 patients have been randomised in two parallel groups and received either agomelatine at 25 mg per day or placebo.
After treatment for two weeks, and in case of low response, doses have been increased to 50 mg per day in double blind study for patients receiving agomelatine with a IVRS system (Interactive Voice Response System). Treatment for 12 weeks was carried out.
The efficacy has been appreciated with evaluation tools recommended by the health authorities, such as the Hamilton Anxiety Scale (Hamilton M., J. Neurol. Neurosurg. Psychiat., 1959, 23, 56-62), or the Sheehan Disability Scale (International Clinical Psychopharmacology, 1996, 11, 89-95). The acceptability profile has also been evaluated.

acceptability profile for the patients (25 mg per day (up to 50 mg per day), 12 weeks): good acceptability profile
discontinuation syndrome when the treatment was stopped (after stopping 12 weeks treatment): absence of the discontinuation syndrome
SMILES: COc1ccc2cccc(CCNC(C)=O)c2c1 [agomelatine, N-[2-(7-methoxy-1-naphthyl)ethyl]acetamide]
difference between agomelatine group and placebo group on the total score of the Hamilton Anxiety Scale (121 patients, 25 mg per day (increased to 50 mg per day in case of low response after two weeks), 12 weeks, p=0.040): −3.28
